From patent US8759104B2, “Cationic lipids” (The University Court of the University of Edinburgh, priority 2010, dated 2014)

Legend:
mice = assay: In vivo transfection of luciferase-expressing plasmid (pLux) in mice, luminescence imaging
Procedure: Experiments were performed to transfect a luciferase-expressing plasmid (pLux) by intravenous injection via the vein tail of mice: three transfected with pLux complexed with compound 29a and three (control) with naked pLux. Two days after instillation, firefly luciferin was administrated intraperitoneally and the mice imaged using an IVIS Spectrum.
The mouse depicted on the left was transfected with naked plasmid; the mouse the right was transfected with plasmid complexed with compound 29a. Mice (n=3, per experiment) were anaesthetised and intubated following standard protocols. 16 μg of a luciferase-reporter plasmid were used per mouse. […] Firefly luciferin (15 mg/kg) was administered intraperitoneally to the anesthetized mice 15 min before scanning for luminescence. Imaging was performed on the IVIS Spectrum (Caliper LS) with large binning, open filter for 10 min.

B16F10 cells [1] = assay: MTT cell viability assay of transfected B16F10 cells; format: cell-based, mouse; conditions: 100% being cell viability of untreated cells; 24 h after addition of transfection agents
Procedure: (§1) Reagents that obtained greater than 50% transfection were also analyzed against HEK293 and B16F10 cell lines. Transfection results (+ percentages of transfection between 5-25%; ++ percentages of transfection between 25-50%; N.D. not determined). MTT toxicity assay results are indicated between brackets with 100% being cell viability of untreated cells.
(§2) Twenty-four hours after the addition of transfection agents, cell viability was measured using an MTT cell proliferation assay (LGC Promochem, Middlesex, UK), which was performed according to the manufacturer's instructions. Absorbance was read at 570 nm. […] The comparative data obtained with lipids 28a, 29a, 30a and 31a of the invention, Lipofectamine™ 2000, Fugene and Effectene® Transfection Reagent are shown between brackets in Table 2.

HeLa cells [2] = assay: MTT cell viability assay of transfected HeLa cells; format: cell-based, human; conditions: 100% being cell viability of untreated cells; 24 h after addition of transfection agents
Procedure: as §1, §2

HeLa cells [3] = assay: Transfection of pEGFP-C1 reporter plasmid into HeLa cells, GFP expression by flow cytometry; format: cell-based, human; conditions: for Transfection efficiency (percentage of transfected cells), HeLa / Transfection results (percentage of transfected cells), HeLa: HeLa cells 48 h after transfection with reporter plasmid, flow cytometry; for Transfection compared with the positive controls: N/P ratio 3, 1:1 mol mixture with DOPE, controls Effectene, Lipofectamine 2000, Fugene
Procedure: (§3) The corresponding cationic lipid (1 mM in methanol) were mixed in different proportions with DOPE (10 mg/mL in chloroform) and the organic solvent removed by evaporation in an oven (37° C.) overnight. The resultant thin films were then hydrated with PBS. The solutions were vortexed (10-20 s) and incubated at ambient temperature for 20 min. Plasmid DNA or siRNA solution (0.04 mg/mL in PBS or another isotonic solution) was subsequently added and the solution vortexed (10-20 s). The lipoplexes were incubated at room temperature for 20 min before being used.
(§4) Human HeLa cells were grown in RPMI supplemented with 4 mM glutamine, 10% FCS and 100 units/ml penicillin/streptomycin (RPMI-CM) until 80% confluence. HEK293 and B16F10 cells were grown in DMEM supplemented with 4 mM glutamine, 10% FCS and 100 units/ml penicillin/streptomycin (DMEM-CM) until 80% confluence. Cells were then suspended using trypsin/EDTA and counted. 2×10^4 cells in 150 μL of media per well were seeded in 96 well plates and incubated overnight. The day afterwards, the different lipoplex formulations were added. Each experiment was performed in quadruplicate, using Effectene® Transfection Reagent (Qiagen), Lipofectamine™ 2000 (Invitrogen) and Fugene (Roche) as positive controls and untreated cells as negative controls. After two days incubation at 37° C. and 5% CO2 (the change of media after transfection was not necessary), the green fluorescent protein (GFP) expression, as a consequence of transfecting the pEGFP-C1, was evidenced using a fluorescent microscope (Leica) and measured by flow cytometry. For the flow cytometry analysis, cells were washed twice with PBS, detached with trypsin/EDTA, harvested with 2% ferum bovine serum (FBS) in PBS, centrifuged and resuspended with 2% FBS in PBS and analyzed using a BD FACSaria flow cytometer. Transfection efficiency was measured as percentage of transfected cells.
as §1

B16F10 cells [4] = assay: Transfection of pEGFP-C1 reporter plasmid into B16F10 cells, GFP expression by flow cytometry; format: cell-based, mouse
Procedure: as §3, §4, §1

HEK293 cells [5] = assay: Transfection of pEGFP-C1 reporter plasmid into HEK293 cells, GFP expression by flow cytometry; format: cell-based, human
Procedure: as §3, §4, §1

HEK293 cells [6] = assay: MTT cell viability assay of transfected HEK293 cells; format: cell-based, human; conditions: 100% being cell viability of untreated cells; 24 h after addition of transfection agents
Procedure: as §1, §2

HeLa cells [7] = assay: Transfection of fluorescein-labelled siRNA (siGLO) into HeLa cells, flow cytometry; format: cell-based, human; conditions: 24 h incubation
Procedure: as §3
Cells were suspended using trypsin/EDTA and counted. 2×10^4 cells in 150 μL of RPMI-CM per well were seeded in 96-well plates and incubated overnight. The day afterwards, the different lipoplex formulations formulated with siGLO (fluorescein-labeled siRNA that localizes within cell nuclei (Dharmacon)) and added to the cells. […] After 24 h incubation at 37° C. and 5% CO2 (change of media after transfection was not necessary), the green fluorescence emitted by intracellular siGLO was imaged under microscope. […] For the flow cytometry analysis, cells were washed twice with PBS, detached with trypsin/EDTA, harvested with 2% FBS in PBS, centrifuged and resuspended with 2% FBS in PBS and analyzed using a BD FACSaria flow cytometer.

Compound	MTT toxicity assay, cell viability (between brackets), B16F10 (B16F10 cells [1])	MTT toxicity assay, cell viability (between brackets), HeLa (HeLa cells [2])	Transfection efficiency (percentage of transfected cells), HeLa (HeLa cells [3])	Transfection efficiency (percentage of transfected cells), B16F10 (B16F10 cells [4])	Transfection efficiency (percentage of transfected cells), HEK293 (HEK293 cells [5])	MTT toxicity assay, cell viability (between brackets), HEK293 (HEK293 cells [6])	Transfection results (percentage of transfected cells), HeLa (HeLa cells [3])	further results
CCCCCCCCCCCCCCCC(=O)NCCN(CCNC(=O)CCCCCCCCCCCCCCC)C(=O)/C=C\C(=O)N[C@@H](CCCNC(=N)N)C(=O)N[C@@H](CCCNC(=N)N)C(N)=O.O=C(O)C(F)(F)F.O=C(O)C(F)(F)F [Compound A2-Sp2-P]	99%	99%	86%	78%	90%	98%	–	Behaviour of mice during the study (mice; mice monitored on a daily basis, n=3 per experiment): behaved normally; Luminescence after in vivo transfection of pLux (mice; mice, intravenous injection via tail vein, 16 μg plasmid per mouse, imaged 48 hours after transfection): Positive luminescence was detected; Location of highest luminescence signal (mice; mice, intravenous injection via tail vein, 48 hours after transfection): at the point of injection; Transfection compared with the positive controls (HeLa cells [3]): more effectively than the positive controls; Cells fluorescently labelled after siRNA transfection (HeLa cells [7]): over 96%
CCCCCCCCCCCCCCCC(=O)NCCN(CCNC(=O)CCCCCCCCCCCCCCC)C(=O)CCC(=O)N[C@@H](CCCNC(=N)N)C(=O)N[C@@H](CCCNC(=N)N)C(=O)N[C@@H](CCCNC(=N)N)C(N)=O.O=C(O)C(F)(F)F.O=C(O)C(F)(F)F.O=C(O)C(F)(F)F [Compound A3-Sp1-P]	89%	93%	75%	56%	84%	95%	–	–
CCCCCCCCCCCCCCCC(=O)NCCN(CCNC(=O)CCCCCCCCCCCCCCC)C(=O)/C=C\C(=O)N[C@@H](CCCNC(=N)N)C(=O)N[C@@H](CCCNC(=N)N)C(=O)N[C@@H](CCCNC(=N)N)C(N)=O.O=C(O)C(F)(F)F.O=C(O)C(F)(F)F.O=C(O)C(F)(F)F [Compound A3-Sp2-P]	93%	92%	70%	69%	80%	96%	–	–
CCCCCCCCCCCCCCCC(=O)NCCN(CCNC(=O)CCCCCCCCCCCCCCC)C(=O)CCC(=O)N[C@@H](CCCNC(=N)N)C(=O)N[C@@H](CCCNC(=N)N)C(N)=O.O=C(O)C(F)(F)F.O=C(O)C(F)(F)F [Compound A2-Sp1-P]	98%	99%	85%	74%	89%	97%	–	Transfection compared with the positive controls (HeLa cells [3]): more effectively than the positive controls
CCCCCCCCCCCCCCCCCCCC(=O)NCCN(CCNC(=O)CCCCCCCCCCCCCCCCCCC)C(=O)CCC(=O)N[C@@H](CCCNC(=N)N)C(=O)N[C@@H](CCCNC(=N)N)C(=O)N[C@@H](CCCNC(=N)N)C(N)=O.O=C(O)C(F)(F)F.O=C(O)C(F)(F)F.O=C(O)C(F)(F)F [Compound A3-Sp1-A]	–	–	–	–	–	–	+ (percentages of transfection between 5-25%)	–
CCCCCCCCCCCCCCCCCCCCCCCC(=O)NCCCN(CCCNC(=O)CCCCCCCCCCCCCCCCCCCCCCC)C(=O)CCC(=O)N[C@@H](CCCNC(=N)N)C(=O)N[C@@H](CCCNC(=N)N)C(=O)N[C@@H](CCCNC(=N)N)C(N)=O.O=C(O)C(F)(F)F.O=C(O)C(F)(F)F.O=C(O)C(F)(F)F [Compound A3-Sp3-L]	–	–	–	–	–	–	+ (percentages of transfection between 5-25%)	–
CCCCCCCCCCCCCCCCCCCC(=O)NCCCN(CCCNC(=O)CCCCCCCCCCCCCCCCCCC)C(=O)/C=C\C(=O)N[C@@H](CCCNC(=N)N)C(=O)N[C@@H](CCCNC(=N)N)C(N)=O.O=C(O)C(F)(F)F.O=C(O)C(F)(F)F [Compound A2-Sp4-A]	–	–	–	–	–	–	+ (percentages of transfection between 5-25%)	–
CCCCCCCCCCCCCCCCCCCCCCCC(=O)NCCN(CCNC(=O)CCCCCCCCCCCCCCCCCCCCCCC)C(=O)/C=C\C(=O)N[C@@H](CCCNC(=N)N)C(=O)N[C@@H](CCCNC(=N)N)C(N)=O.O=C(O)C(F)(F)F.O=C(O)C(F)(F)F [Compound A2-Sp2-L]	–	–	–	–	–	–	+ (percentages of transfection between 5-25%)	–
CCCCCCCCCCCCCCCCCCCC(=O)NCCCN(CCCNC(=O)CCCCCCCCCCCCCCCCCCC)C(=O)CCC(=O)N[C@@H](CCCNC(=N)N)C(=O)N[C@@H](CCCNC(=N)N)C(=O)N[C@@H](CCCNC(=N)N)C(N)=O.O=C(O)C(F)(F)F.O=C(O)C(F)(F)F.O=C(O)C(F)(F)F [Compound A3-Sp3-A]	–	–	–	–	–	–	+ (percentages of transfection between 5-25%)	–
